{
  "source": "patent US20260021167A1",
  "about": "“COMPOSITIONS AND METHODS FOR TREATING OR PREVENTING NEURODEGENERATIVE DISEASES” (Delaware State University, priority 2022, published 2026)",
  "key": {"[1]": {"tested_on": "PFF-injected old mice", "test": "Grooming in PFF-injected mice", "format": "in vivo, mouse", "conditions": "10 and/or 50 mg/kg oral, vs PFF only", "description": "(§1) A mouse model of Parkinson's disease is C57BL/6 male or female mice (50% each) injected with 5 μg of mouse PFF at 12 months old, followed by a treatment below for 6-7 weeks: • 1) without PFF injection, followed by vehicle (control, n=7); • 2) PFF injection, followed by vehicle (PFF only: control, n=8); • 3) PFF injection, followed by daily 10 mg/kg Momordin gavage (n=7-8); • 4) PFF injection, followed by daily 50 mg/kg Momordin gavage (n=7-8).\nGrooming. Individual pictures of each animal were taken over 3 days and analyzed for grooming capabilities. Additional data were collected over 6 weeks during the gavaging period for PFF-injected mice to monitor whether the mice in all groups performed grooming activities uniformly. The points were averaged at the end of the assessment after the mice were euthanized. The coat conditions of each animal were assessed to correlate motivation and activity levels for each animal. […] The grooming pictures were also analyzed by blinded raters and given a point out of 10, with 1 being a poor/dull coat and 10 being a shiny and healthy-looking coat."}, "[2]": {"tested_on": "PFF-injected mice", "test": "Behavioral tests overall in PFF-injected mice", "format": "in vivo, mouse", "conditions": "10 or 50 mg/kg oral", "description": "as §1\nBehavioral tests were performed using the methods described in Ghosh et al. (Int J Mol Sci. 2022 Apr. 12; 23 (8): 4262) (FIG. 11A)."}, "[3]": {"molecular_target": "T1, SENP-1 (Mus musculus, UniProt P59110)", "T1 construct": "from tissue; host or cells: mouse brain: midbrain (MB) and striatum (STR) extracts", "T1 sequence (P59110 1-640)": "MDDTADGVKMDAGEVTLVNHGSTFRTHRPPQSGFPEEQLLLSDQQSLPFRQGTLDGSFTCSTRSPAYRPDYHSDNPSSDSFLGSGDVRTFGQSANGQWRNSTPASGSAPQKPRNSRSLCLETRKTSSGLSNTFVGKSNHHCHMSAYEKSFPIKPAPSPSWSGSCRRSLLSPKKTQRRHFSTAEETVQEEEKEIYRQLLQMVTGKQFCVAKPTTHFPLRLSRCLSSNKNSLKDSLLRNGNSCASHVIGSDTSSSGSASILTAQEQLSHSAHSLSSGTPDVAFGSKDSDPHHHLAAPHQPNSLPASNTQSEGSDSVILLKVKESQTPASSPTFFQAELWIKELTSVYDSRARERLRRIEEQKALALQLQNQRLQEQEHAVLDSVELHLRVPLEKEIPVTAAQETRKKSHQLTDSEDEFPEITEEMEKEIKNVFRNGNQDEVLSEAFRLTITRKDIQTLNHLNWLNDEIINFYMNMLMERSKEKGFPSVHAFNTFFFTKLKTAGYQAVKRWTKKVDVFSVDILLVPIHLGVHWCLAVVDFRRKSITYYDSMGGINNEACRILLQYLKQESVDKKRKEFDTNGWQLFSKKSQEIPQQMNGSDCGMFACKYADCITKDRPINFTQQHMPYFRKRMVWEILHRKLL", "test": "Western blot of SENP-1 in brain tissue extracts of PFF-injected mice", "format": "in vivo", "conditions": "vs PFF only", "description": "as §1\nImmunoblot Analyses. A total of three protein extractions were performed. In the first extraction, a gentle RIPA buffer containing the low concentration of detergent (25 mM Tris-HCL, 150 mM NaCl, 1% NP-40, 1% sodium deoxycholate and 0.1% SDS) was added with phosphatase inhibitors (100 μL for 10 mL) and 5 mM EDTA. The mixture was sonicated and centrifuged at 14,000 rpm for 10 min. The supernatant was collected for measuring the levels of phosphorylated α-syn, SENP-1 or SUMO-1 conjugated proteins for different groups. […] The primary antibodies pertaining to each protein analyzed were diluted at 1:1000 (p-Ser-129-α-synuclein, Cell signaling; SENP-1, SAB4501345, EMD) and incubated at 4° C. overnight. […] ImageJ was used to analyze specific bands on each blot and measured against the loading control (β-actin) for normalizing each band intensity."}, "[4]": {"molecular_target": "T2, SENP-1 on α-synuclein (Mus musculus, UniProt P59110)", "T2 construct": "from tissue; host or cells: mouse brain: midbrain and striatum, α-synuclein immunoprecipitates", "T2 sequence (P59110 1-640)": "T1 sequence (P59110 1-640)", "test": "Western blot of SENP-1 on α-synuclein in α-synuclein IP tissue samples", "format": "in vivo", "conditions": "PFF-injected mice, vs PFF only", "description": "A) In Western blots, Momordin reversed the toxicity from PFF injection in reducing phospho-α-synuclein and SENP-1 on α-synuclein in the MB and STR. […] A pathological marker, phosphorylated α-synuclein was increased by PFF injection, which was reversed by Momordin treatment in the MB (F) and the STR (G).\nas §1"}, "[5]": {"tested_on": "nigrostriatal neurons", "test": "ROS in nigrostriatal neurons of PFF-injected mice", "format": "in vivo", "conditions": "PFF injection, mouse brains"}},
  "data": [
    {"smiles": "CC1(C)CC[C@]2(C(=O)O)CC[C@]3(C)C(=CC[C@@H]4[C@@]5(C)CC[C@H](O[C@@H]6O[C@H](C(=O)O)[C@@H](O)[C@H](O[C@@H]7OC[C@@H](O)[C@H](O)[C@H]7O)[C@H]6O)C(C)(C)[C@@H]5CC[C@]43C)[C@@H]2C1", "note": "[Momordin lc]", "values": [
      {"measurement": "grooming", "setting": "[1]", "result": "improves"},
      {"measurement": "behavioral / motor deficits derived from PFF injection", "setting": "[2]", "result": "improved the behavioral deficits"},
      {"measurement": "behavioral / motor deficits derived from PFF injection", "setting": "[2]; listed as Momordin", "result": "alleviates severe motor deficits"},
      {"measurement": "PFF-induced SENP-1 in the MB (Western blot, tissue extracts)", "setting": "[3]; midbrain", "result": "reduced"},
      {"measurement": "PFF-induced SENP-1 in the STR (Western blot, tissue extracts)", "setting": "[3]; striatum", "result": "reduced"},
      {"measurement": "PFF-induced SENP-1 on α-synuclein in the MB (α-synuclein IP)", "setting": "[4]; midbrain", "result": "reduced"},
      {"measurement": "PFF-induced SENP-1 on α-synuclein in the STR (α-synuclein IP)", "setting": "[4]; striatum", "result": "reduced"},
      {"measurement": "level of ROS in nigrostriatal neurons", "setting": "[5]", "result": "alleviated the level of ROS"}
    ]}
  ]
}
